Calls of active or inactive are those of the source. The rule behind the calls is not given here.
Tests used:
MDA-MB-231 [1] = test: Antiproliferative activity against human MDA-MB-231 cells after 72 hrs by sulforhodamine B assay; type: functional, cell-based; details: MDA-MB-231, 72 h
MCF7 = test: Antiproliferative activity against human MCF7 cells after 72 hrs by sulforhodamine B assay; type: functional, cell-based; details: MCF7, 72 h
A549 = test: Antiproliferative activity against human A549 cells after 72 hrs by sulforhodamine B assay; type: functional, cell-based; details: A549, 72 h
KB = test: Antiproliferative activity against human KB cells after 72 hrs by sulforhodamine B assay; type: functional, cell-based
[2] = Antiproliferative activity against human KB-VIN cells after 72 hrs by sulforhodamine B assay; type: functional, cell-based; details: KBVIN
[3] = Inhibition of TrxR in human MDA-MB-231 cells measured after 72 hrs by colorimetric method; type: cell-based
MDA-MB-231 [4] = test: Induction of reactive oxygen species generation in human MDA-MB-231 cells measured after 24 hrs by DCFH-DA probe based flow cytometry; type: functional, cell-based
[5] = Selectivity ratio of IC50 for human A549 cells to IC50 for human MDA-MB-231 cells; type: functional

Row | SMILES | IC50 (MDA-MB-231 [1]) [nM] | IC50 (MCF7) [nM] | IC50 (A549) [nM] | IC50 (KB) [nM] | IC50 [2] [nM] | IC50 [3] [nM] | Activity (MDA-MB-231 [4]) | Ratio IC50 [5]
1 | COc1cc(/C=C2\CN(S(C)(=O)=O)C=CC2=O)cc(OC)c1OC | 15900 | 17600 | 18700 |  |  |  |  | 
2 | COc1ccc(/C=C2\CCC=CC2=O)c(C)c1 | 1070 | 1840 | 1550 | 1310 | 1590 | 460 | Active | 
3 | COc1cc(/C=C2\CCC=CC2=O)cc2ccccc12 | 1630 | 3600 | 1630 | 1500 | 2620 |  |  | 
4 | COc1cccc(/C=C2\CCC=CC2=O)c1 | 1060 | 2030 | 1480 | 1550 | 2570 |  |  | 
5 | O=C1C=CCC/C1=C\c1ccc(-c2ccccc2)cc1 | 680 | 4970 | 3670 | 2320 | 4840 |  |  | 
6 | COc1ccc(/C=C2\CCC=CC2=O)cc1 | 1620 | 2570 | 1460 | 1560 | 2930 |  |  | 
7 | Cn1cc(/C=C2\CCC=CC2=O)c2ccccc21 | 3370 | 6040 | 4920 | 4420 | 4960 |  |  | 
8 | COc1cc(/C=C2\CCC=CC2=O)cc(OC)c1 | 600 | 4620 | 4740 | 3630 | 4870 |  |  | 
9 | O=C1C=CCC/C1=C\c1cnc2ccccc2c1 | 640 | 5250 | 4450 | 920 | 5380 |  |  | 
10 | CC(=O)n1cc(/C=C2\CCC=CC2=O)c2ccccc21 | 930 | 5440 | 4830 | 4460 | 5050 |  |  | 
11 | COc1cccc(/C=C2\CCC=CC2=O)c1OC | 610 | 4710 | 5090 | 3850 | 5220 |  |  | 8
12 | COc1ccc(/C=C2\CCC=CC2=O)cc1[N+](=O)[O-] | 590 | 1680 | 1480 | 1360 | 1630 | 630 | Active | 
13 | COc1cc(/C=C2\CN(C(=O)OCc3ccccc3)C=CC2=O)cc(OC)c1OC | 24200 | > 25000 | 21300 |  |  |  |  | 
14 | O=C1C=CCC/C1=C\c1ccc2c(c1)OCO2 | 1650 | 2280 | 1520 | 1660 | 2200 |  |  | 

From ChEMBL document CHEMBL4765408, “Design and synthesis of benzylidenecyclohexenones as TrxR inhibitors displaying high anticancer activity and inducing ROS, apoptosis, and autophagy” (Eur J Med Chem, 2020)
